# Literature values, collected in patent publication US8372995B2, “Crystalline solid forms of tigecycline and methods of preparing same” (priority 2005, dated 2013).
# Tests used:
# [1] = system: penicillin-resistant Streptococcus pneumoniae
# [2] = system: vancomycin-resistant enterococci
# [3] = system: organisms carrying either of the two major forms of tetracycline resistance: efflux and ribosomal protection
# [4] = oral
# [5] = system: methicillin-resistant Staphylococcus aureus
smiles,measurement,setting,value
CN(C)c1cc(NC(=O)CNC(C)(C)C)c(O)c2c1C[C@H]1C[C@H]3[C@H](N(C)C)C(O)=C(C(N)=O)C(=O)[C@@]3(O)C(O)=C1C2=O [Tigecycline],activity against penicillin-resistant Streptococcus pneumoniae,[1],active
same,activity against vancomycin-resistant enterococci,[2],active
same,"activity against organisms carrying tetracycline resistance (efflux, ribosomal protection)",[3],active
same,bioavailability when given orally,[4],generally poor
same,activity against methicillin-resistant Staphylococcus aureus,[5],active
